Measurements published in patent US6949542B2, “Dihydro-benzo[b][1,4]diazepin-2-one derivatives” (Hoffman-La Roche Inc., priority 2002, dated 2005).
pKi: −log10 of the molar value. Where two headings read alike, the source gives them in different places.

Columns and labels:
[1] = target: T1, rat mGlu2 receptor (Rattus norvegicus, UniProt P31421); assay: [3H]-LY354740 binding on mGlu2 transfected CHO cell membranes
T1 construct: expressed in transfected cells; vector pcD1mGR2
Method: [^3H]-LY354740 Binding on mGlu2 Transfected CHO Cell Membranes
Transfection and Cell Culture
The cells were maintained in Dulbecco's Modified Eagle medium with reduced L-glutamine (2 mM final concentration) and 10% dialysed foetal calf serum from Gibco BRL (Basel, Switzerland).
Cells, cultured as above, were harvested and washed three times with cold PBS and frozen at −80° C. The pellet was resuspended in cold 20 mM HEPES-NaOH buffer containing 10 mM EDTA (pH 7.4), and homogenised with a polytron (Kinematica, AG, Littau, Switzerland) for 10 s at 10 000 rpm. After centrifugation for 30 min. at 4° C., the pellet was washed once with the same buffer, and once with cold 20 mM HEPES-NaOH buffer containing 0.1 mM EDTA, (pH 7.4). Protein content was measured using the Pierce method (Socochim, Lausanne, Switzerland) using bovine serum albumin as standard.
After thawing, the membranes were resuspended in cold 50 mM Tris-HCl buffer containing 2 mM MgCl2 and 2 mM CaCl2, (pH 7) (binding buffer). The final concentration of the membranes in the assays was 25 μg protein/ml. Inhibition experiments were performed with membranes incubated with 10 nM [^3H]-LY354740 at room temperature, for 1 hour, in presence of various concentrations of the compound to be tested. Following the incubations, membranes were filtered onto Whatmann GF/C glass fiber filters and washed 5 times with cold binding buffer. Non specific binding was measured in the presence of 10 μM DCG IV. After transfer of the filters into plastic vials containing 10 ml of Ultima-gold scintillation fluid (Packard, Zürich, Switzerland), the radioactivity was measured by liquid scintillation in a Tri-Carb 2500 TR counter (Packard, Zürich, Switzerland).
The inhibition curves were fitted with a four parameter logistic equation giving IC50 values, and Hill coefficients.

[2] = inhibition of 10 nM [3H]-LY354740 binding, mGlu2 transfected CHO cell membranes, room temperature, 1 hour, read-out: Ki mGlu2

T1 sequence (P31421 19-872): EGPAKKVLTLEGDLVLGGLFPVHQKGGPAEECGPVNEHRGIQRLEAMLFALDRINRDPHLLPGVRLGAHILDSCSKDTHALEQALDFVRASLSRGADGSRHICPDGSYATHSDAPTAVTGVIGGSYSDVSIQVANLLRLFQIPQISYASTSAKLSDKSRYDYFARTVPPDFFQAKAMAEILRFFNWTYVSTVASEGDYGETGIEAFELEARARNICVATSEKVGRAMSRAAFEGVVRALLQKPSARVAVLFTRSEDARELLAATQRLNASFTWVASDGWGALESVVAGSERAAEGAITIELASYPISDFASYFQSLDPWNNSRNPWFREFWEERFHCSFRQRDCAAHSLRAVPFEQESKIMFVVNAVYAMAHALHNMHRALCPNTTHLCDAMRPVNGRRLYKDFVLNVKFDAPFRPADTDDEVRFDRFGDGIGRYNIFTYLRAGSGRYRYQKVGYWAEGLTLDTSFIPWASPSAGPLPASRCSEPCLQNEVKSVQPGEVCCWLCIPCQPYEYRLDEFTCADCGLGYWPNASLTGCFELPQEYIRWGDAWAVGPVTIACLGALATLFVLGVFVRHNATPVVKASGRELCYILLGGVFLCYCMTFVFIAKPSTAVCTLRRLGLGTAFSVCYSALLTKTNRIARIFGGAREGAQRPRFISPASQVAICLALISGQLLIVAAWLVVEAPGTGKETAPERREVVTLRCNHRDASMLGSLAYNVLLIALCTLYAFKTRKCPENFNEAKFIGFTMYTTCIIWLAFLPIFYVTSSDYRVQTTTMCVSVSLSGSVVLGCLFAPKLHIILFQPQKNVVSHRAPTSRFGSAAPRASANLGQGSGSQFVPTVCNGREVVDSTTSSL

Row | Structure (SMILES) | pKi [1, 2] | melting point | pKi [1]
1 | O=C1CC(c2cccc(-c3ccncc3)c2)=Nc2cc(Cl)c(Cl)cc2N1 [Example 2, 7,8-Dichloro-4-(3-pyridin-4-yl-phenyl)-1,3-dihydro-benzo[b][1,4]diazepin-2-one] | 8.47 | 240 °C | 
2 | O=C1CC(c2cccc(-c3ccccn3)c2)=Nc2cc(Cl)c(Cl)cc2N1 [Example 5, 7,8-Dichloro-4-(3-pyridin-2-yl-phenyl)-1,3-dihydro-benzo[b][1,4]diazepin-2-one] | 7.63 | 239 °C | 
3 | Cc1ccc(-c2cccc(C3=Nc4ccc(C(F)(F)F)cc4NC(=O)C3)c2)cn1 [Example 9, 4-[3-(6-Methyl-pyridin-3-yl)-phenyl]-8-trifluoromethyl-1,3-dihydro-benzo[b][1,4]diazepin-2-one] | 8.26 | 215 to 218 °C | 
4 | Cc1ccc(-c2cccc(C3=Nc4ccc(-c5ccccc5F)cc4NC(=O)C3)c2)cn1 [Example 12, 8-(2-Fluoro-phenyl)-4-[3-(6-methyl-pyridin-3-yl)-phenyl]-1,3-dihydro-benzo[b][1,4]diazepin-2-one] | 8.41 | 206 to 209 °C | 
5 | Cc1ncccc1-c1cccc(C2=Nc3cc(N(C)C)c(C(F)(F)F)cc3NC(=O)C2)c1 [Example 13, 7-Dimethylamino-4-[3-(2-methyl-pyridin-3-yl)-phenyl]-8-trifluoromethyl-1,3-dihydro-benzo[b][1,4]diazepin-2-one] | 8.22 | 229 to 230 °C | 
6 | Cc1ccc(-c2cccc(C3=Nc4ccc(-c5ccccc5F)cc4NC(=O)C3)c2)nn1 [Example 16, 8-(2-Fluoro-phenyl)-4-[3-(6-methyl-pyridazin-3-yl)-phenyl]-1,3-dihydro-benzo[b][1,4]diazepin-2-one] | 7.78 | 225 °C | 
7 | Cc1cc2c(cc1C(F)(F)F)N=C(c1cccc(-c3cccnc3)c1)CC(=O)N2 [Example 25, 8-Methyl-4-(3-pyridin-3-yl-phenyl)-7-trifluoromethyl-1,3-dihydro-benzo[b][1,4]diazepin-2-one] | 8.55 | 221 °C | 
8 | O=C1CC(c2cccc(-c3cccnc3)c2)=Nc2ccc(Cl)cc2N1 [Example 28, 8-Chloro-4-(3-pyridin-3-yl-phenyl)-1,3-dihydro-benzo[b][1,4]diazepin-2-one] | 8.70 | 232 °C | 
9 | O=C1CC(c2cccc(-c3ccncc3)c2)=Nc2cc(OCC(F)(F)F)c(C(F)(F)F)cc2N1 [Example 37, 4-(3-Pyridin-4-yl-phenyl)-7-(2,2,2-trifluoro-ethoxy)-8-trifluoromethyl-1,3-dihydro-benzo[b][1,4]diazepin-2-one] | 8.81 | 221 to 222 °C (dec.) | 
10 | COc1ccc(-c2cccc(C3=Nc4ccc(-c5ccccc5F)cc4NC(=O)C3)c2)nn1 [Example 41, 8-(2-Fluoro-phenyl)-4-[3-(6-methoxy-pyridazin-3-yl)-phenyl]-1,3-dihydro-benzo[b][1,4]diazepin-2-one] | 7.61 | 220 °C | 
11 | COc1cc2c(cc1C(F)(F)F)NC(=O)CC(c1cccc(-c3ccccn3)c1)=N2 [Example 42, 7-Methoxy-4-(3-pyridin-2-yl-phenyl)-8-trifluoromethyl-1,3-dihydro-benzo[b][1,4]diazepin-2-one] | 7.57 | 240 °C | 
12 | Cc1ccc(-c2cccc(C3=Nc4cc(N(C)C)c(C(F)(F)F)cc4NC(=O)C3)c2)c(C)n1 [Example 47, 7-Dimethylamino-4-[3-(2,6-dimethyl-pyridin-3-yl)-phenyl]-8-trifluoromethyl-1,3-dihydro-benzo[b][1,4]diazepin-2-one] | 7.65 | 187 to 189 °C | 
13 | Cc1cc2c(cc1Cl)NC(=O)CC(c1cccc(-c3ccnnc3)c1)=N2 [Example 48, 8-Chloro-7-methyl-4-(3-pyridazin-4-yl-phenyl)-1,3-dihydro-benzo[b][1,4]diazepin-2-one] | 8.03 | 240 °C (dec.) | 
14 | O=C1CC(c2cccc(-c3cccnc3)c2)=Nc2cc(OCC(F)(F)F)ccc2N1 [Example 57, 4-(3-Pyridin-3-yl-phenyl)-7-(2,2,2-trifluoro-ethoxy)-1,3-dihydro-benzo[b][1,4]diazepin-2-one] | 8.21 |  | 
15 | CC(C)CNc1cc2c(cc1C(F)(F)F)NC(=O)CC(c1cccc(-c3ccncc3)c1)=N2 [Example 63, 7-Isobutylamino-4-(3-pyridin-4-yl-phenyl)-8-trifluoromethyl-1,3-dihydro-benzo[b][1,4]diazepin-2-one] | 7.72 | 198 °C | 
16 | Cc1cc2c(cc1Cl)NC(=O)CC(c1cccc(-c3ccncc3)c1)=N2 [Example 67, 8-Chloro-7-methyl-4-(3-pyridin-4-yl-phenyl)-1,3-dihydro-benzo[b][1,4]diazepin-2-one] | 8.81 |  | 
17 | Cc1cc(-c2cccc(C3=Nc4ccc(-c5ccccc5F)cc4NC(=O)C3)c2)ccn1 [Example 72, 8-(2-Fluoro-phenyl)-4-[3-(2-methyl-pyridin-4-yl)-phenyl]-1,3-dihydro-benzo[b][1,4]diazepin-2-one] | 8.74 |  | 

Row | Structure (SMILES) | pKi [1, 2] | melting point | pKi [1]
18 | Cc1cc(-c2cccc(C3=Nc4cc(C)c(Cl)cc4NC(=O)C3)c2)ccn1 [Example 73, 8-Chloro-7-methyl-4-[3-(2-methyl-pyridin-4-yl)-phenyl]-1,3-dihydro-benzo[b][1,4]diazepin-2-one] | 8.57 |  | 
19 | Cc1cc(-c2cccc(C3=Nc4cc(N(C)C)c(C(F)(F)F)cc4NC(=O)C3)c2)ccn1 [Example 78, 7-Dimethylamino-4-[3-(2-methyl-pyridin-4-yl)-phenyl]-8-trifluoromethyl-1,3-dihydro benzo[b][1,4]diazepin-2-one] | 8.89 | 225 °C | 
20 | CCCN(C)c1cc2c(cc1C(F)(F)F)NC(=O)CC(c1cccc(-c3ccnc(C)c3)c1)=N2 [Example 80, 7-(Methyl-propyl-amino)-4-[3-(2-methyl-pyridin-4-yl)-phenyl]-8-trifluoromethyl-1,3-dihydro benzo[b][1,4]diazepin-2-one] | 8.26 | 192 °C | 
21 | Cc1cc2c(cc1C(F)(F)F)NC(=O)CC(c1cccc(-c3cnccn3)c1)=N2 [Example 87, 7-Methyl-4-(3-pyrazin-2-yl-phenyl)-8-trifluoromethyl-1,3-dihydro-benzo[b][1,4]diazepin-2-one] | 8.00 | 237 °C | 
22 | O=C1CC(c2cccc(-c3cncnc3)c2)=Nc2cc(Cl)c(Cl)cc2N1 [Example 97, 7,8-Dichloro-4-(3-pyrimidin-5-yl-phenyl)-1,3-dihydro-benzo[b][1,4]diazepin-2-one] |  | 272 °C | 7.97
23 | Cc1cc2c(cc1Cl)NC(=O)CC(c1cccc(-c3cncnc3)c1)=N2 [Example 104, 8-Chloro-7-methyl-4-(3-pyrimidin-5-yl-phenyl)-1,3-dihydro-benzo[b][1,4]diazepin-2-one] | 8.10 | 248 °C | 
24 | O=C1CC(c2cccc(-c3cncnc3)c2)=Nc2ccc(-c3ccccc3F)cc2N1 [Example 105, 8-(2-Fluoro-phenyl)-4-(3-pyrimidin-5-yl-phenyl)-1,3-dihydro-benzo[b][1,4]diazepin-2-one] | 8.21 | 223 °C | 
25 | O=C1CC(c2cccc(-c3cnccn3)c2)=Nc2ccc(-n3cccc3)cc2N1 [Example 109, 4-(3-Pyrazin-2-yl-phenyl)-8-pyrrol-1-yl-1,3-dihydro-benzo[b][1,4]diazepin-2-one] | 8.26 | 214 °C | 
26 | Cc1cncc(-c2cccc(C3=Nc4cc(C)c(C(F)(F)F)cc4NC(=O)C3)c2)n1 [Example 129, 7-Methyl-4-[3-(6-methyl-pyrazin-2-yl)-phenyl]-8-trifluoromethyl-1,3-dihydro-benzo[b][1,4]diazepin-2-one] | 8.51 | 233 °C | 
27 | Cc1cc(-c2cccc(C3=Nc4cc(OCC(F)(F)F)c(C(F)(F)F)cc4NC(=O)C3)c2)c(C)cn1 [Example 138, 4-[3-(2,5-Dimethyl-pyridin-4-yl)-phenyl]-7-(2,2,2-trifluoro-ethoxy)-8-trifluoromethyl-1,3-dihydro-benzo[b][1,4]diazepin-2-one] | 8.44 | 202 °C | 
28 | CCc1cnc(C)cc1-c1cccc(C2=Nc3cc(C)c(Cl)cc3NC(=O)C2)c1 [Example 147, 8-Chloro-4-[3-(5-ethyl-2-methyl-pyridin-4-yl)-phenyl]-7-methyl-1,3-dihydro-benzo[b][1,4]diazepin-2-one] | 8.35 | 195 °C | 
29 | Cc1cccc(-c2cccc(C3=Nc4cc(N(C)C)c(C(F)(F)F)cc4NC(=O)C3)c2)n1 [Example 160, 7-Dimethylamino-4-[3-(6-methyl-pyridin-2-yl)-phenyl]-8-trifluoromethyl-1,3-dihydro-benzo[b][1,4]diazepin-2-one] | 7.73 | 195 °C | 
30 | O=C1CC(c2cccc(-c3cccnc3)c2)=Nc2ccc(OCC(F)(F)F)cc2N1 [Example 197, 4-(3-Pyridin-3-yl-phenyl)-8-(2,2,2-trifluoro-ethoxy)-1,3-dihydro-benzo[b][1,4]diazepin-2-one] | 8.00 | 156 °C | 
31 | N#Cc1cc(-c2cccc(C3=Nc4ccc(C(F)(F)F)cc4NC(=O)C3)c2)ccn1 [Example 198, 4-[3-(4-Oxo-7-trifluoromethyl-4,5-dihydro-3H-benzo[b][1,4]diazepin-2-yl)-phenyl]-pyridine-2-carbonitrile] | 7.63 | 239 to 240 °C | 
32 | COCCOc1cc2c(cc1C(F)(F)F)NC(=O)CC(c1cccc(-c3ccnc(C#N)c3)c1)=N2 [Example 209, 4-{3-[8-(2-Methoxy-ethoxy)-4-oxo-7-trifluoromethyl-4,5-dihydro-3H-benzo[b][1,4]diazepin-2-yl]-phenyl}-pyridine-2-carbonitrile] | 7.89 | 212 to 213 °C | 
33 | Cc1cc2c(cc1C(F)(F)F)NC(=O)CC(c1ccnc(-c3cccnc3)c1)=N2 [Example 290, 4-[2,3′]Bipyridinyl-4-yl-7-methyl-8-trifluoromethyl-1,3-dihydro-benzo[b][1,4]diazepin-2-one] | 8.30 |  | 
